In US11779585B2 (priority 2020, dated 2023):
Where “and” joins values, the source holds several entries; their conditions need not be identical. Equal entries are not always repeated. Where two headings read alike, the source gives them in different places.

Key:
SARS-CoV2 = assay: microbe, parasite or virus in culture; format: cell-based, SARS-CoV-2; settings: for inhibition at 0.075 µM: Severe acute respiratory syndrome coronavirus 2, Vero C1008, 0.075 μM; for inhibition at 0.15 µM: Severe acute respiratory syndrome coronavirus 2, Vero C1008, 0.15 μM; for inhibition at 0.3 µM: Severe acute respiratory syndrome coronavirus 2, Vero C1008, 0.3 μM; for inhibition at 0.6 µM: Severe acute respiratory syndrome coronavirus 2, Vero C1008, 0.6 μM
[1] = cited from earlier work
[2] = Dogs, cited from earlier work
MERS-CoV Jordan virus = format: cell-based; settings: at a concentration of 0.1 μM, FIG. 1
[3] = cited from earlier work; remark: listed apart in the source
[4] = title MOI 0.6 (text MOI 1.3), Plate 1
[5] = title MOI 0.6 (text MOI 1.3), Plate 2

In the case of `NC(=O)c1cn([C@@H]2O[C@H](CO)[C@@H](O)[C@H]2O)c2ncnc(N)c12` [Oya1, 4-amino-7-((2R,3R,4S,5R)-3,4-dihydroxy-5-(hydroxymethyl)tetrahydrofuran-2-yl)-7H-pyrrolo[2,3-d]pyrimidine-5-carboxamide], the Inhibition (SARS-CoV2; 0.15 μM, MOI 0.4, Plate 2) is reported as 86.8%, the Inhibition (SARS-CoV2; 0.15 μM, MOI 0.6, Plate 1) is reported as 99.78% and 99.74% and the Inhibition (SARS-CoV2; 0.15 μM, title MOI 0.6 (text MOI 1.3), Plate 1) is reported as 100.3795%. The Inhibition (SARS-CoV2; 0.3 μM, MOI 0.2, Plate 1) was 99.69%, the Inhibition (SARS-CoV2; 0.3 μM, MOI 0.2, Plate 2) was 99.99% and the Inhibition (SARS-CoV2; 0.3 μM, MOI 0.4, Plate 1) was 99.72%. For the same compound, the Inhibition (SARS-CoV2; 0.3 μM, MOI 0.6, Plate 1) was 85.36%, the Inhibition (SARS-CoV2; 0.3 μM, title MOI 0.6 (text MOI 1.3), Plate 1) was 97.59% and the Inhibition (SARS-CoV2; 0.6 μM, MOI 0.2, Plate 1) was 99.15%. For the same compound, the Inhibition (SARS-CoV2; 0.6 μM, MOI 0.6, Plate 2) was 96.04%, the “fold greater efficacy (IC50) than remdesivir” value (SARS-CoV2; Oya1 0.03 μM vs remdesivir 0.77 μM (Wang et al.)) was 25 fold and the IC50 (SARS-CoV2; Severe acute respiratory syndrome coronavirus 2, Vero C1008) was 30 nM. The inhibition at 0.0047 µM (SARS-CoV2; Severe acute respiratory syndrome coronavirus 2, Vero C1008, 0.0047 μM, MOI 0.4, Plate 2) was 8.02%, the inhibition at 0.0094 µM (SARS-CoV2; Severe acute respiratory syndrome coronavirus 2, Vero C1008, 0.0094 μM, MOI 0.4, Plate 2) was 15.2% and the inhibition at 0.0188 µM (SARS-CoV2; Severe acute respiratory syndrome coronavirus 2, Vero C1008, 0.0188 μM, MOI 0.4, Plate 2) was 15.6%. The inhibition at 0.0375 µM (SARS-CoV2; Severe acute respiratory syndrome coronavirus 2, Vero C1008, 0.0375 μM, MOI 0.4, Plate 1) was 10.9%, the inhibition at 0.075 µM (SARS-CoV2; MOI 0.2, Plate 1) was 67.8% and the inhibition at 0.075 µM (SARS-CoV2; MOI 0.4, Plate 2) was 19.8%. For the same compound, the inhibition at 0.15 µM (SARS-CoV2; MOI 0.2, Plate 1) was 97.2%, the inhibition at 0.15 µM (SARS-CoV2; MOI 0.2, Plate 2) was 96% and the inhibition at 0.15 µM (SARS-CoV2; MOI 0.4, Plate 1) was 95.9%. For the same compound, the inhibition at 0.15 µM (SARS-CoV2; MOI 0.4, Plate 2) was 83.4%, the inhibition at 0.15 µM (SARS-CoV2; MOI 0.6, Plate 1) was 98.6% and the inhibition at 0.15 µM (SARS-CoV2; MOI 0.6, Plate 2) was 99.7%. It also gave an inhibition at 0.15 µM (SARS-CoV2; [4]) of 101%, an inhibition at 0.15 µM (SARS-CoV2; [5]) of 101% and an inhibition at 0.3 µM (SARS-CoV2; MOI 0.2, Plate 1) of 99.9%. It also gave an inhibition at 0.3 µM (SARS-CoV2; MOI 0.2, Plate 2) of 100%, an inhibition at 0.3 µM (SARS-CoV2; MOI 0.4, Plate 1) of 96.9% and an inhibition at 0.3 µM (SARS-CoV2; MOI 0.4, Plate 2) of 91.4%. For the same compound, the inhibition at 0.3 µM (SARS-CoV2; MOI 0.6, Plate 1) was 100%, the inhibition at 0.3 µM (SARS-CoV2; MOI 0.6, Plate 2) was 100% and the inhibition at 0.3 µM (SARS-CoV2; [4]) was 100%. It also gave an inhibition at 0.3 µM (SARS-CoV2; [5]) of 101%, an inhibition at 0.6 µM (SARS-CoV2; MOI 0.2, Plate 1) of 100% and an inhibition at 0.6 µM (SARS-CoV2; MOI 0.2, Plate 2) of 99.7%. For the same compound, the inhibition at 0.6 µM (SARS-CoV2; MOI 0.4, Plate 1) was 100%, the inhibition at 0.6 µM (SARS-CoV2; MOI 0.4, Plate 2) was 67.4% and the inhibition at 0.6 µM (SARS-CoV2; MOI 0.6, Plate 1) was 100%. It also gave an inhibition at 0.6 µM (SARS-CoV2; MOI 0.6, Plate 2) of 99.7%, an inhibition at 0.6 µM (SARS-CoV2; [4]) of 101% and an inhibition at 0.6 µM (SARS-CoV2; [5]) of 101%. The anti-cancer activity ([1]; Phase I clinical trials, humans) was “inactive against cancer”, the tolerability in humans ([1]; Phase I clinical trials) was “well tolerated” and the “Reported Safe Clinical Dosing” value ([1]; daily dosing × 41) was 0.12 mg/kg/day × 41. For the same compound, the “MTD (not reached at highest single dose tested)” value ([1]; humans, Cavins 1967) was over 0.3 mg/kg, the Observed toxic effect ([1]; humans, daily, highest dosing regimen 120 μg/kg/day × 41 days) was 0 and the Observed toxic effect ([1]; humans, thrice weekly, highest dosing regimen 50-250 μg/kg/day × 45 days) was 0. The Observed toxic effect ([1]; humans, weekly, highest dosing regimen 200 μg/kg/day × 150 days) was 0, the “LD50, multi dose” value ([2]; × 14 days) was 0.3 × 14 days mg/kg and the “LD50, single dose” value [2] was 2.5 mg/kg. The “LD50, total dose (multi dose)” value [2] was 4.2 mg/kg, the “inhibition of the MERS-CoV RNA polymerase” value (MERS-CoV Jordan virus) was “approximately 100%” and the half-life in blood ([3]; Mice) was 50 h. For the same compound, the cleared ([3]; mice, following 12 days post injection) was 40%.
